Assay results published in PubChem BioAssay (NCI).
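These data come from cells grown in 96-well plates and exposed to compound for 48 hours at five concentrations. At the GI50, growth is halved. TGI is the concentration that stops growth completely.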

How the values were obtained:
Assay in all cases: NCI anticancer screen, dose series, 48 h
[1] = tested on: HL-60(TB) leukemia
[2] = tested on: MALME-3M melanoma
[3] = tested on: MDA-MB-231 breast
[4] = tested on: MOLT-4 leukemia
[5] = tested on: OVCAR-8 ovarian
[6] = tested on: SK-MEL-5 melanoma
[7] = tested on: SN12C renal
[8] = tested on: SR leukemia
[9] = tested on: SW-620 colon
[10] = tested on: UO-31 renal

| Compound | GI50 [1] [µM] | TGI [1] [µM] | GI50 [2] [µM] | TGI [2] [µM] | GI50 [3] [µM] | TGI [3] [µM] | GI50 [4] [µM] | TGI [4] [µM] | GI50 [5] [µM] | TGI [5] [µM] | GI50 [6] [µM] | TGI [6] [µM] | GI50 [7] [µM] | TGI [7] [µM] | GI50 [8] [µM] | TGI [8] [µM] | GI50 [9] [µM] | TGI [9] [µM] | GI50 [10] [µM] | TGI [10] [µM] |
| --- | --- | --- | --- | --- | --- | --- | --- | --- | --- | --- | --- | --- | --- | --- | --- | --- | --- | --- | --- | --- |
| O=C(Nc1ccc(F)cc1)Nc1ccccc1CNc1nc(Nc2ccc(OCCN3CCCC3)cc2)ncc1Cl | 1.07 | 2.31 | 0.81 | 1.55 | 0.871 | 1.77 | 1.53 | 4.74 | 1.83 | 12.2 | 1.55 | 4.98 | 0.984 | 2.01 | 1.81 | 50 | 1.65 | 6.84 | 0.742 | 1.49 |
| CC/C(=C(/c1ccc(OCCN(C)C)cc1)c1ccc(OC(=O)CCC(=O)c2c(C)[nH]c(/C=C3\N=C(c4ccc[nH]4)C=C3OC)c2C)cc1)c1ccccc1 | 3.13 | 8.8 | 2.68 | 6.35 | 0.441 | 2.38 | 0.974 | 4.25 | 2.73 | 10.3 | 1.31 | 2.62 | 3.09 | 18.9 | 0.694 | 5.38 | 0.76 | 2.57 | 1.71 | 5.05 |
| CC(C)Nc1ccc(Nc2ccccc2)cc1 | 17.7 | 51.3 | 14.9 | 43.2 | 8.32 | 35.6 | 21.2 | > 100 | 11.6 | 26.5 | 11.4 | 24.9 | 27.1 | > 100 | 15.7 | 49.3 | 15.8 | 45.8 | 14.1 | 64.9 |
| Nc1cc(C(=O)O)[nH]c(=O)n1 | – | > 100 | – | > 100 | – | > 100 | – | > 100 | – | > 100 | – | > 100 | – | > 100 | – | > 100 | – | > 100 | – | > 100 |
| Cn1cc(C2=C(c3cccc(N)c3)C(=O)NC2=O)c2ccccc21 | 11.4 | > 25 | > 25 | > 25 | 4.52 | > 25 | 14.1 | > 25 | 17.4 | > 25 | 9.66 | > 25 | 13.7 | > 25 | 9.03 | 24.8 | 17.8 | > 25 | 14.1 | > 25 |
| CCCc1cc(O)c2c3c(c(=O)oc2c1)CN(C)CC3 | 50.2 | > 100 | 35.1 | > 100 | 35 | > 100 | 44.3 | > 100 | > 100 | > 100 | 19 | 44.7 | > 100 | > 100 | 36.1 | > 100 | > 100 | > 100 | 35.8 | > 100 |
| CC(=O)N1N=C(c2ccc(Nc3nc(Nc4ccc(Cl)cc4)nc(Nc4ccc(Cl)cc4)n3)cc2)CC1c1ccc([N+](=O)[O-])cc1 (stereo unspecified) | 6.15 | 24.4 | 14.7 | 71.7 | 10.2 | > 92 | 1.92 | 8.35 | 8.54 | > 100 | 3.22 | 15.8 | 13.4 | > 100 | 2.66 | 20.5 | 8.77 | > 100 | 4.29 | > 100 |
| CCCCCCc1cc2cc(-c3nc4ccccc4[nH]3)c(=Nc3ccccc3C)oc2cc1O | 2.13 | 4.52 | 1.81 | 3.62 | 2.37 | 6.4 | 3.9 | 22.5 | 2.26 | 6.05 | 2 | 4.96 | 1.73 | 4.1 | 1.86 | 4.47 | 2.04 | 4.91 | 1.64 | 4.49 |
| Cn1cc(C2=C(c3cn(CCO)c4ccccc34)C(=O)NC2=O)c2ccccc21 | 1.12 | 6.36 | 6.9 | 17.5 | 5.98 | > 22.4 | 1.36 | 16.8 | 5.48 | > 21.9 | 2.55 | 9.67 | 4.75 | > 25 | 1.02 | > 23.3 | 1.21 | > 25 | 3.2 | 14.6 |
| Fc1ccc(-c2nn3c(-c4ccc(F)c(Cl)c4)nnc3s2)cc1 | 27.4 | > 50 | > 50 | > 50 | 30.5 | > 50 | 26.3 | > 50 | 37.1 | > 50 | 44.2 | > 50 | 32.3 | > 50 | 43.8 | > 50 | > 50 | > 50 | 28.6 | > 50 |
| COC(=O)C1=C(C)NC(C)=C(C(=O)OC)C1/C=C(\Cl)c1ccc(Cl)c(Cl)c1 | 11.9 | 38.4 | 17.5 | 35.9 | 11.9 | 25.3 | 3.69 | 27.6 | 36.1 | > 100 | 15.2 | 28.5 | 14 | 27.5 | 3.3 | 22.4 | 12.2 | 28.7 | 13.9 | 27.1 |
| c1ccc2c(c1)sc1c3cnccc3ccc21 | – | > 100 | – | > 100 | – | > 100 | – | > 100 | – | – | – | > 100 | – | > 100 | – | > 100 | – | > 100 | – | > 100 |
| Cc1ccc(NC(=O)Cc2ccc(/C=C/C(=O)c3ncc[nH]3)cc2)cc1 | 5.88 | > 25 | > 25 | > 25 | 9.46 | > 25 | 5.33 | > 25 | 7.24 | > 25 | 18.3 | > 25 | 5.91 | > 25 | 0.992 | > 25 | 5.22 | > 25 | 3.01 | 14.2 |
| CCOC(=O)/C(=N\OC)C(O)C(F)(F)F (stereo unspecified) | – | > 100 | – | > 100 | – | > 100 | – | > 100 | – | > 100 | – | > 100 | – | > 100 | – | > 100 | – | > 100 | – | > 100 |
| CC(=O)Nc1ccc(/C=C/C(=O)c2ccccc2)cc1 | 24.8 | 81.2 | 16.7 | 36.9 | 17.7 | 44.6 | 5.55 | 68.4 | 12.3 | 30.4 | 16.2 | 30.3 | 12.9 | 29.5 | 3.24 | 22 | 4.32 | 17.1 | 5.3 | 21.2 |
| N#C/C(=N\Nc1ccc(Cl)cc1)C(=O)Nc1cc(-c2ccccc2)nn1-c1ccccc1 | 3.05 | 9.38 | – | – | 2.86 | > 100 | 3.5 | > 100 | 2.96 | > 100 | 1.63 | 4.27 | 2.44 | > 100 | 3.59 | > 100 | 3.11 | > 100 | 2.93 | > 100 |
| N#Cc1cccc(OCc2nc(N)nc(N)c2-c2ccc(Cl)c(Cl)c2)c1 | 1.55 | > 100 | – | – | 6.13 | > 100 | 2.83 | > 100 | 0.765 | > 100 | 1.29 | > 100 | 2.23 | > 100 | 2.39 | > 100 | 0.484 | > 100 | 3.23 | > 100 |
| Clc1cc2c(cc1Cl)Oc1cc(Cl)c(Cl)cc1O2 | > 0.625 | > 0.625 | > 0.625 | > 0.625 | > 0.625 | > 0.625 | > 0.625 | > 0.625 | > 0.625 | > 0.625 | > 0.625 | > 0.625 | > 0.625 | > 0.625 | > 0.625 | > 0.625 | > 0.625 | > 0.625 | 0.209 | > 0.625 |
| CCOc1ccc(-c2cnnn2-c2nonc2-n2cccc2)cc1 | 0.309 | 13.4 | 0.383 | > 78.3 | 0.337 | 5.03 | 0.51 | 31.7 | 0.439 | > 100 | 0.245 | 12.4 | 0.557 | > 100 | 0.104 | 41.4 | 0.111 | > 100 | 0.376 | > 88.8 |
| CC(C)[C@H]1CC[C@H]2[C@@H](CC[C@H]3[C@](C)(CN)CCC[C@]23C)C1 | 1.8 | 4.23 | 2.48 | 7.47 | 2.05 | 4.51 | 2.21 | 5.2 | 2.61 | 5.62 | 4.87 | 17.3 | 1.75 | 3.65 | 2.65 | 15.2 | 1.84 | 3.49 | 1.76 | 4.21 |
| CCCCCc1nc2c(c3c1CCCC3)CCCC2 | 5.8 | 29.4 | 11.3 | 25.7 | 11 | 26.2 | 8.88 | 62.6 | 10.1 | 36.9 | 6.19 | 18.8 | 12.3 | 34.2 | 15.7 | 45.1 | 11.2 | 27.3 | 2.19 | 13.9 |
| O=S(=O)(Cc1ccc(Cl)cc1Cl)c1ccc(Cl)cc1 | 0.37 | 17.7 | – | – | 2.38 | > 61.6 | 1.14 | > 100 | 1.22 | > 100 | 0.437 | 24.4 | 1.5 | > 100 | 0.296 | 11 | 0.365 | > 100 | 1.03 | > 53.3 |
| Cc1cc2cc3cc(C)c(N(C)C)cc3[n+](C)c2cc1N(C)C | 3.22 | > 100 | 3.6 | 19.4 | 3.17 | 9 | 3.58 | > 100 | 2.72 | 14.7 | 2.1 | 6.96 | 3.91 | > 100 | 3.16 | > 100 | 2.92 | 18 | 5.05 | 70.7 |
| C=C(C)C1Cc2c(cc(OC)c3c(=O)c4cccc(O)c4oc23)O1 (stereo unspecified) | – | > 100 | – | 48.4 | – | 47.6 | – | > 100 | – | 59.5 | – | 30.1 | – | 76.7 | – | > 100 | – | > 100 | – | 39 |
| N#Cc1ncc(-c2ccc(C(F)(F)F)cc2)c(NCc2cc(C(F)(F)F)cc(C(F)(F)F)c2)n1 | 2.36 | 5.76 | 2.98 | 8.89 | 3.17 | 12.6 | 3.17 | 9.79 | 3.69 | > 100 | 3.91 | 15 | 3.54 | > 100 | 2.97 | 13.8 | 3.13 | > 100 | 2.89 | 54.4 |
| COc1ccc(-n2cc(-c3cc(OC)c(OC)c(OC)c3)nc2SCc2ccccc2)cc1 | 10 | > 100 | > 100 | > 100 | > 100 | > 100 | 9.03 | > 100 | – | – | 8.54 | 56.7 | > 100 | > 100 | 54 | > 100 | > 100 | > 100 | 28 | > 100 |
